Results: US12162820B2 (TAIWANJ PHARMACEUTICALS CO., LTD., priority 2019, dated 2024)

Experiments:
Format in all cases: biochemical
HDAC1 = biological target: T1, HDAC1 (Homo sapiens, UniProt Q13547); assay: HDAC Inhibition Screening Assay (FLUOR DE LYS Fluorimetric Drug Discovery Kit), HDAC1; conditions: for inhibition at 2 µM: 2 μM compound; for inhibition at 10 µM: 10 μM compound; for inhibition at 50 µM: 50 μM compound
T1 construct: purchased Enzo Life Sciences
Outline: (§1)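 Two-step fluorimetric kit: enzyme deacetylates acetylated-lysine substrate; developer then releases fluorophore. Test cpds 2, 10, 50 μM. Ex 360/485 nm, Em 460/530 nm. Activity = % of basal control minus baseline control.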

HDAC2 = biological target: T2, HDAC2 (Homo sapiens, UniProt Q92769); assay: HDAC Inhibition Screening Assay (FLUOR DE LYS Fluorimetric Drug Discovery Kit), HDAC2; conditions: for inhibition at 2 µM: 2 μM compound; for inhibition at 10 µM: 10 μM compound; for inhibition at 50 µM: 50 μM compound
T2 construct: purchased Enzo Life Sciences
Outline: as §1

HDAC3 = biological target: T3, HDAC3 (Homo sapiens, UniProt O15379); assay: HDAC Inhibition Screening Assay (FLUOR DE LYS Fluorimetric Drug Discovery Kit), HDAC3; conditions: for inhibition at 2 µM: 2 μM compound; for inhibition at 10 µM: 10 μM compound; for inhibition at 50 µM: 50 μM compound
T3 construct: purchased Enzo Life Sciences
Outline: as §1

ATX (autotaxin) = biological target: T4, ATX (autotaxin) (Homo sapiens, UniProt Q13822); assay: Autotaxin Inhibition Screening Assay (choline release from LPC, LPC-CR); conditions: for inhibition at 4 µM: 4 μM compound; for inhibition at 20 µM: 20 μM compound; for inhibition at 50 µM: 50 μM compound
T4 construct: purchased Cayman 10803
Outline: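 Released choline from 100 μM 14:0 LPC, detected via choline oxidase–HRP–homovanillic acid fluorescence (320/450 nm) kinetically over 90 min, reports activity of 20 ng ATX. Buffer: 50 mM Tris pH 8.0, 50 mM CaCl2, 0.01% Triton X-100; test compounds 4, 20, 50 μM; percent inhibition from blank-subtracted slopes relative to vehicle.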

T1 sequence (Q13547 whole entry): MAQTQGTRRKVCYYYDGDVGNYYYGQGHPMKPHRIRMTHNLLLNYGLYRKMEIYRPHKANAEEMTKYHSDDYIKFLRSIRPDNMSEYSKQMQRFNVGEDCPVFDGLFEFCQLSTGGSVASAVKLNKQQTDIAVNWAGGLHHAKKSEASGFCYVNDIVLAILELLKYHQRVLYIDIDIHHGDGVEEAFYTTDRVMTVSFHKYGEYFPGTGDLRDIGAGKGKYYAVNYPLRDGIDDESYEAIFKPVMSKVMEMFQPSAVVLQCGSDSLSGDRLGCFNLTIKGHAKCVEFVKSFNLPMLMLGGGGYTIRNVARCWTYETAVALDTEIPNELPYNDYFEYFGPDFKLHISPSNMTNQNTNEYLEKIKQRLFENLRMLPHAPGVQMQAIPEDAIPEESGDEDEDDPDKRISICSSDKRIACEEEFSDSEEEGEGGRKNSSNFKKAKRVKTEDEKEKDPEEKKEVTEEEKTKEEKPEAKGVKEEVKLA
T2 sequence (Q92769 whole entry): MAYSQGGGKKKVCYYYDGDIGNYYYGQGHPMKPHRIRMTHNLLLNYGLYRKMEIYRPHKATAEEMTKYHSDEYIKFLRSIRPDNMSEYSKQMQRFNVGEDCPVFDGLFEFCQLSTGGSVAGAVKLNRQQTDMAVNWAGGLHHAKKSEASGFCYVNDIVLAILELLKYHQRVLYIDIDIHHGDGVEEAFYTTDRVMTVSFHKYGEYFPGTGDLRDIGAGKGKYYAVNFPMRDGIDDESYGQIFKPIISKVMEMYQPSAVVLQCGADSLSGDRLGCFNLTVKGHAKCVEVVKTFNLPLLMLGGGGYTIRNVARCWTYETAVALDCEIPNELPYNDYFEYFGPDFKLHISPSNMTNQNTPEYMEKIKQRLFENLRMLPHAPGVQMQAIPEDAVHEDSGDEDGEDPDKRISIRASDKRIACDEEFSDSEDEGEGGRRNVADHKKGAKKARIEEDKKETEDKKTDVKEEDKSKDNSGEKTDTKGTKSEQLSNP
T3 sequence (O15379 whole entry): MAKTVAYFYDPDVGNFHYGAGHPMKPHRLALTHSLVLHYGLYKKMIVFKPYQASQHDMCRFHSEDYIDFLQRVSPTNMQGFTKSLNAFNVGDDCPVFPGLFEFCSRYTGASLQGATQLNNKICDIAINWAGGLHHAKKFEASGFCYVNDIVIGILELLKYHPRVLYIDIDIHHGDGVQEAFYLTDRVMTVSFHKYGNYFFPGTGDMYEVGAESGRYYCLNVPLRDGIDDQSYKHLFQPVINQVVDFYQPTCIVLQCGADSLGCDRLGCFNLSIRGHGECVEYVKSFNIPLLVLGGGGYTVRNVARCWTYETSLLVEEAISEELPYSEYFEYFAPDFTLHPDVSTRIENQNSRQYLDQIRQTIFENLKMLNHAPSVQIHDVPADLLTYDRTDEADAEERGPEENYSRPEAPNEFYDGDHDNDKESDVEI
T3 sequence (O75376 395-489 partner limits assumed): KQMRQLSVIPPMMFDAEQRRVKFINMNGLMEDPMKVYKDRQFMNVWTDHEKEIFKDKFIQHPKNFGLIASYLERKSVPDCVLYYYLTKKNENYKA

SMILES	inhibition at 2 µM (HDAC1)	inhibition at 10 µM (HDAC1)	inhibition at 50 µM (HDAC1)	inhibition at 2 µM (HDAC2)	inhibition at 10 µM (HDAC2)	inhibition at 50 µM (HDAC2)	inhibition at 2 µM (HDAC3)	inhibition at 10 µM (HDAC3)	inhibition at 50 µM (HDAC3)	inhibition at 4 µM (ATX (autotaxin))	inhibition at 20 µM (ATX (autotaxin))	inhibition at 50 µM (ATX (autotaxin))
O=C(NO)c1ccc(COc2ccc3c(c2)CC(Cc2cc(C(F)(F)F)cc(C(F)(F)F)c2)C3=O)cc1 (stereo not drawn) [Compound 77, 4-(((2-(3,5-bis(trifluoromethyl)benzyl)-1-oxo-2,3-dihydro-1H-inden-5-yl)oxy)methyl)-N-hydroxybenzamide]	< 50%	< 50%	50 to 80%	< 50%	50 to 80%	50 to 80%	< 50%	< 50%	50 to 80%	> 80%	> 80%	> 80%
Nc1cc(F)ccc1NC(=O)CCCCCNC(=O)c1ccc2c(c1)CC/C(=C\c1cc(C(F)(F)F)cc(C(F)(F)F)c1)C2=O [Compound 78]	< 50%	< 50%	< 50%	< 50%	< 50%	< 50%	< 50%	< 50%	< 50%	> 80%	> 80%	> 80%
O=C(CCCCCNC(=O)c1ccc2c(c1)CC/C(=C\c1cc(C(F)(F)F)cc(C(F)(F)F)c1)C2=O)NO [Compound 79, (E)-6-(3,5-bis(trifluoromethyl)benzylidene)-N-(6-(hydroxyamino)-6-oxohexyl)-5-oxo-5,6,7,8-tetrahydronaphthalene-2-carboxamide]	50 to 80%	> 80%	> 80%	50 to 80%	> 80%	> 80%	50 to 80%	> 80%	> 80%	> 80%	> 80%	> 80%
Nc1cc(F)ccc1NC(=O)CCCCNC(=O)c1ccc2c(c1)CC/C(=C\c1cc(C(F)(F)F)cc(C(F)(F)F)c1)C2=O [Compound 80]	< 50%	< 50%	< 50%	< 50%	< 50%	< 50%	< 50%	< 50%	< 50%	< 50%	< 50%	50 to 80%
O=C(CCCCNC(=O)c1ccc2c(c1)CC/C(=C\c1cc(C(F)(F)F)cc(C(F)(F)F)c1)C2=O)NO [Compound 81, (E)-6-(3,5-bis(trifluoromethyl)benzylidene)-N-(5-(hydroxyamino)-5-oxopentyl)-5-oxo-5,6,7,8-tetrahydronaphthalene-2-carboxamide]	< 50%	< 50%	50 to 80%	< 50%	< 50%	50 to 80%	< 50%	50 to 80%	50 to 80%	> 80%	> 80%	> 80%
Nc1cc(F)ccc1NC(=O)CCCCC(=O)N1CCN(C(=O)c2ccc3c(c2)CC/C(=C\c2cc(C(F)(F)F)cc(C(F)(F)F)c2)C3=O)CC1 [Compound 82, (E)-N-(2-amino-4-fluorophenyl)-6-(4-(6-(3,5-bis(trifluoromethyl)benzylidene)-5-oxo-5,6,7,8-tetrahydronaphthalene-2-carbonyl)piperazin-1-yl)-6-oxohexanamide]	< 50%	< 50%	< 50%	< 50%	< 50%	< 50%	< 50%	< 50%	50 to 80%	> 80%	> 80%	> 80%
O=C(CCCCC(=O)N1CCN(C(=O)c2ccc3c(c2)CC/C(=C\c2cc(C(F)(F)F)cc(C(F)(F)F)c2)C3=O)CC1)NO [Compound 83, (E)-6-(4-(6-(3,5-bis(trifluoromethyl)benzylidene)-5-oxo-5,6,7,8-tetrahydro-naphthalene-2-carbonyl)piperazin-1-yl)-N-hydroxy-6-oxohexanamide]	< 50%	< 50%	50 to 80%	< 50%	< 50%	50 to 80%	< 50%	< 50%	50 to 80%	> 80%	> 80%	> 80%
